Legend:
[1] = target: T1, hRIPK1 (aa 1-375) fusion protein (Homo sapiens, UniProt Q13546); test: ADP-Glo kinase assay: catalytic activity of RIPK1 (autophosphorylation, conversion of ATP to ADP); format: biochemical
T1 construct: hRIPK1 (aa 1-375) fusion protein
T1 sequence (Q13546 1-375): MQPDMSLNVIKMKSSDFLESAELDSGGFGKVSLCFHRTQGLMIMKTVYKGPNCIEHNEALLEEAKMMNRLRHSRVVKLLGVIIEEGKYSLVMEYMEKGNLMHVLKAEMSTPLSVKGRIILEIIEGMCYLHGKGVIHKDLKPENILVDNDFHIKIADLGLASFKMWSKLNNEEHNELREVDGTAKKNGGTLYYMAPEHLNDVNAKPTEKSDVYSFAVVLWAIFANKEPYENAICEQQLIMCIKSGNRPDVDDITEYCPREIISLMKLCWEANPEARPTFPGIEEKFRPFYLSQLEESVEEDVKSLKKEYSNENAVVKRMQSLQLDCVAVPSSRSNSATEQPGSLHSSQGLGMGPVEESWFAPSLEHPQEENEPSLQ
Summary of the method: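 hRIPK1 (aa 1-375) fusion protein (3.6 μg/ml final) was preincubated 30 min at rt with compound (33300-1.69 nM, 1% DMSO), then 50 μM ATP was added for 240 min at rt. ADP from autophosphorylation was measured by ADP-Glo luminescence and curves fitted by nonlinear regression.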

U937 cells = test: Cellular assay in U937 cells: activity of RIPK1 inhibitors on TNFα/zVAD.fmk-induced cell death (necroptosis), CellTiter 96 AQueous (MTS) readout; format: cell-based; details: Homo sapiens, U-937
Summary of the method: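 Necroptosis was measured by viable-cell MTS reduction (4 h, absorbance 490 nm) after overnight (18–24 h) 37° C culture. Cell suspensions of U937 cells carried TNFα (100 ng/ml) plus zVAD.fmk (50 μM) before compound was added. A 10-point curve (10 μM–0.26 nM or 1 μM–0.07 nM) was run in duplicate, normalised to the control lacking TNFα/zVAD.fmk.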

SMILES	IC50 [1]	IC50 (U937 cells)
Cc1nc2c(C)cc(C[C@H]3CC[C@H](C(=O)N4OCC[C@H]4c4csc(C)n4)CC3)cn2n1 [compound 361, trans-[4-(2,8-Dimethyl-[1,2,4]triazolo[1,5-a]352yridine-6-ylmethyl)-cyclohexyl]-[(S)-3-(2-methyl-thiazol-4-yl)-isoxazolidin-2-yl]-methanone]	57 nM	35 nM
Cc1ccc([C@@H]2CCON2C(=O)[C@H]2CC[C@H](Cc3cc(F)c4nnc(C)n4c3)CC2)cn1 [compound 364, trans-[4-(8-Fluoro-3-methyl-[1,2,4]triazolo[4,3-a]pyridin-6-ylmethyl)-cyclohexyl]-[(S)-3-(6-methyl-pyridin-3-yl)-isoxazolidin-2-yl]-methanone]	234 nM	491 nM
Cc1ccc([C@@H]2CCON2C(=O)[C@H]2CC[C@H](Cc3cc(C)c4nnc(C)n4c3)CC2)cn1 [compound 365, trans-[4-(3,8-Dimethyl-[1,2,4]triazolo[4,3-a]pyridin-6-ylmethyl)-cyclohexyl]-[(S)-3-(6-methyl-pyridin-3-yl)-isoxazolidin-2-yl]-methanone]	97 nM	71 nM
Cc1nc([C@@H]2CCON2C(=O)[C@H]2CC[C@H](Cc3ccc(C4(O)COC4)cc3)CC2)cs1 [compound 369, trans-{4-[4-(3-Hydroxy-oxetan-3-yl)-benzyl]-cyclohexyl}-[(S)-3-(2-methyl-thiazol-4-yl)-isoxazolidin-2-yl]-methanone]	26 nM	24 nM
Cc1cn2ncc(C[C@H]3CC[C@H](C(=O)N4OCC[C@H]4c4csc(C)n4)CC3)cc2n1 [compound 371, trans-[4-(2-Methyl-imidazo[1,2-b]pyridazin-7-ylmethyl)-cyclohexyl]-[(S)-3-(2-methyl-thiazol-4-yl)-isoxazolidin-2-yl]-methanone]	65 nM	147 nM
Cc1nc([C@@H]2CCON2C(=O)[C@H]2CC[C@H](Cc3ccc4nnc(C)n4c3C)CC2)cs1 [compound 375, [4-(3,5-Dimethyl-[1,2,4]triazolo[4,3-a]pyridin-6-ylmethyl)-cyclohexyl]-[(S)-3-(2-methyl-thiazol-4-yl)-isoxazolidin-2-yl]-methanone]	63 nM	10 nM
Cc1ccc([C@@H]2CCON2C(=O)[C@H]2CC[C@H](Cc3ccc4nnc(C)n4c3C)CC2)cn1 [compound 376, [4-(3,5-Dimethyl-[1,2,4]triazolo[4,3-a]pyridin-6-ylmethyl)-cyclohexyl]-[(S)-3-(6-methyl-pyridin-3-yl)-isoxazolidin-2-yl]-methanone]	75 nM	90 nM
Cc1cc(C[C@H]2CC[C@H](C(=O)N3OCC[C@H]3c3coc(C)n3)CC2)c(C)cn1 [compound 377, trans-[4-[(2,5-dimethylpyridin-4-yl)methyl]cyclohexyl]-[(3S)-3-(2-methyl-1,3-oxazol-4-yl)-1,2-oxazolidin-2-yl]methanone]	35 nM	36 nM
Cc1cncc([C@@H]2CCON2C(=O)[C@H]2CC[C@H](Cc3cc(C)c4nc(C)nn4c3)CC2)c1 [compound 378, trans-[4-[(2,8-dimethyl-[1,2,4]triazolo[1,5-a]pyridin-6-yl)methyl]cyclohexyl]-[(3S)-3-(5-methylpyridin-3-yl)-1,2-oxazolidin-2-yl]methanone]	59 nM	95 nM
Cc1cnc([C@@H]2CCON2C(=O)[C@H]2CC[C@H](Cc3cc(F)c4nc(C)nn4c3)CC2)cn1 [compound 379, trans-[4-[(8-fluoro-2-methyl-[1,2,4]triazolo[1,5-a]pyridin-6-yl)methyl]cyclohexyl]-[(3S)-3-(5-methylpyrazin-2-yl)-1,2-oxazolidin-2-yl]methanone]	50 nM	191 nM
Cc1nc2c(F)cc(C[C@H]3CC[C@H](C(=O)N4OCC[C@H]4c4cncc(F)c4)CC3)cn2n1 [compound 380]	70 nM	129 nM
Cc1cnc([C@@H]2CCON2C(=O)[C@H]2CC[C@H](Cc3cc(C)ncc3F)CC2)cn1 [compound 384, trans-[4-[(5-fluoro-2-methylpyridin-4-yl)methyl]cyclohexyl]-[(3S)-3-(5-methylpyrazin-2-yl)-1,2-oxazolidin-2-yl]methanone]	28 nM	7 nM
Cc1cnc([C@@H]2CCON2C(=O)[C@H]2CC[C@H](Cc3cc(C)ncc3Cl)CC2)cn1 [compound 385, trans-[4-[(5-chloro-2-methylpyridin-4-yl)methyl]cyclohexyl]-[(3S)-3-(5-methylpyrazin-2-yl)-1,2-oxazolidin-2-yl]methanone]	24 nM	3 nM

Now from value to compound, other results behind:

IC50 [1]	SMILES	IC50 (U937 cells)
59 nM	Cc1nc([C@@H]2CCON2C(=O)[C@H]2CC[C@H](Cc3cc(C)c4ncnn4c3)CC2)cs1 [compound 362, trans-[(S)-3-(2-Methyl-thiazol-4-yl)-isoxazolidin-2-yl]-[4-(8-methyl-[1,2,4]triazolo[1,5-a]pyridin-6-ylmethyl)-cyclohexyl]-methanone]	52 nM
180 nM	Cc1nc([C@@H]2CCON2C(=O)[C@H]2CC[C@H](Cc3cc(F)c4nnc(C)n4c3)CC2)cs1 [compound 363, trans-[4-(8-Fluoro-3-methyl-[1,2,4]triazolo[4,3-a]pyridin-6-ylmethyl)-cyclohexyl]-[(S)-3-(2-methyl-thiazol-4-yl)-isoxazolidin-2-yl]-methanone]	222 nM
40 nM	Cc1cc(C[C@H]2CC[C@H](C(=O)N3OCC[C@H]3c3csc(C)n3)CC2)c(C)cn1 [compound 366, trans-[4-(2,5-Dimethyl-pyridin-4-ylmethyl)-cyclohexyl]-[(S)-3-(2-methyl-thiazol-4-yl)-isoxazolidin-2-yl]-methanone]	11 nM
95 nM	COc1cc(C[C@H]2CC[C@H](C(=O)N3OCC[C@H]3c3ccc(C)nc3)CC2)cn2nc(C)nc12 [compound 368, trans-[4-(8-Methoxy-2-methyl-[1,2,4]triazolo[1,5-a]pyridin-6-ylmethyl)-cyclohexyl]-[(S)-3-(6-methyl-pyridin-3-yl)-isoxazolidin-2-yl]-methanone]	123 nM
34 nM	Cc1cn2cc(C[C@H]3CC[C@H](C(=O)N4OCC[C@H]4c4csc(C)n4)CC3)cc(F)c2n1 [compound 370, trans-[4-(8-Fluoro-2-methyl-imidazo[1,2-a]pyridin-6-ylmethyl)-cyclohexyl]-[(S)-3-(2-methyl-thiazol-4-yl)-isoxazolidin-2-yl]-methanone]	21 nM
53 nM	Cc1nc2cc(C[C@H]3CC[C@H](C(=O)N4OCC[C@H]4c4csc(C)n4)CC3)ccn2n1 [compound 372, trans-[(S)-3-(2-Methyl-thiazol-4-yl)-isoxazolidin-2-yl]-[4-(2-methyl-[1,2,4]triazolo[1,5-a]pyridin-7-ylmethyl)-cyclohexyl]-methanone]	103 nM
110 nM	Cc1ccc([C@@H]2CCON2C(=O)[C@H]2CC[C@H](Cc3ccn4nc(C)nc4c3)CC2)cn1 [compound 373, trans-[(S)-3-(6-Methyl-pyridin-3-yl)-isoxazolidin-2-yl]-[4-(2-methyl-[1,2,4]triazolo[1,5-a]pyridin-7-ylmethyl)-cyclohexyl]-methanone]	78 nM
36 nM	Cc1nc2cc(C[C@H]3CC[C@H](C(=O)N4OCC[C@H]4c4cnccn4)CC3)ccn2n1 [compound 374, trans-[4-(2-Methyl-[1,2,4]triazolo[1,5-a]pyridin-7-ylmethyl)-cyclohexyl]-((S)-3-pyrazin-2-yl-isoxazolidin-2-yl)-methanone]	55 nM
31 nM	Cc1nc2c(Cl)cc(C[C@H]3CC[C@H](C(=O)N4OCC[C@H]4c4cnc(C)c(F)c4)CC3)cn2n1 [compound 381, [4-[(8-chloro-2-methyl-[1,2,4]triazolo[1,5-a]pyridin-6-yl)methyl]cyclohexyl]-[(3S)-3-(5-fluoro-6-methylpyridin-3-yl)-1,2-oxazolidin-2-yl]methanone]	8 nM
26 nM	Cc1nc2c(Cl)cc(C[C@H]3CC[C@H](C(=O)N4OCC[C@H]4c4cncc(F)c4)CC3)cn2n1 [compound 382, [4-[(8-chloro-2-methyl-[1,2,4]triazolo[1,5-a]pyridin-6-yl)methyl]cyclohexyl]-[(3S)-3-(5-fluoropyridin-3-yl)-1,2-oxazolidin-2-yl]methanone]	8 nM
81 nM	COc1cc(C[C@H]2CC[C@H](C(=O)N3OCC[C@H]3c3cncc(C)c3)CC2)cn2nc(C)nc12 [compound 383, trans-[4-[(8-methoxy-2-methyl-[1,2,4]triazolo[1,5-a]pyridin-6-yl)methyl]cyclohexyl]-[(3S)-3-(5-methylpyridin-3-yl)-1,2-oxazolidin-2-yl]methanone]	47 nM
25 nM	Cc1ccc([C@@H]2CCON2C(=O)[C@H]2CC[C@H](Cc3cc(C)ncc3F)CC2)cn1 [compound 386, trans-[4-[(5-fluoro-2-methylpyridin-4-yl)methyl]cyclohexyl]-[(3S)-3-(6-methylpyridin-3-yl)-1,2-oxazolidin-2-yl]methanone]	13 nM

Reference: patent US20260158009A1 (GENZYME CORPORATION, priority 2023, published 2026)
